Values joined by “and” are separate entries in the source; they are usually repeats but may differ in a detail not shown here. Equal entries are not always repeated. “Also recorded” adds a separate entry of the source.
What was measured:
[1] = Flux rate of clenbuterol through human skin depending on pH (FIG. 9); type: in vitro ADME; conditions: pH range 6.0 to 8.5 versus higher and lower pH
From the text: The flux rate of an active substance through the skin is defined as the quantity of active substance per unit of area of the skin and per unit of time and is normally given in [μg/cm^2.h].
Curve B illustrates the water solubility of the substance depending on the pH value [mg/ml]. […] (The right-hand ordinate in FIG. 9 is shown logarithmically). [μg/cm^2. h]

[2] = Permeability of pH-modified clenbuterol CPA through human skin (Franz cell release apparatus); type: in vitro ADME
Protocol: Permeability of pH-modified clenbuterol CPA through human skin:
Composition of the CPA's:
Polymethacrylate 90% 90%
A Franz cell was used as the release apparatus. This is a conventional method of testing the release of drugs from pharmaceutical formulations. Samples were taken after 24 hours and 48 hours and the clenbuterol content was determined.

[3] = transdermal administration, prior practice; cited from earlier work
[4] = pH of the skin surface underneath the system after 5 days' wearing, surface pH electrode (FIG. 6); type: in vivo, human; conditions: in the polymethacrylate matrix
From the text: The systems tested differ in their concentration of citric acid in the polymethacrylate matrix. It is clear that only a citric acid concentration of more than 1% can bring about any significant change in the surface pH of the skin. The words "values 1, 2 and 3" in FIG. 7 refer to test subjects.

Compound	flux rate depending on pH [1]	diffusion rate, alkaline versus acid pH ([2]; pH 10.0 vs pH 3.5)	Clenbuterol Diffusion after 24 hours ([2]; pH-value 10.0 (5% Na2CO3), 24 hours, 5% clenbuterol in polymethacrylate)	Clenbuterol Diffusion after 48 hours ([2]; pH-value 10.0 (5% Na2CO3), 48 hours, 5% clenbuterol in polymethacrylate)	constancy of blood level values [3]	citric acid concentration that brings about significant change in the surface pH of the skin [4]
CC(C)(C)NCC(O)c1cc(Cl)c(N)c(Cl)c1 (stereo not drawn) [Clenbuterol]	reaches a maximum in the pH range specified above, but decreases sharply at higher and lower pH levels; also recorded: reduced drastically outside the pH range specified	a higher diffusion rate is found at an alkaline pH than at an acid pH	7.8 μg/cm^2 and 11.44 μg/cm^2 and 9.84 μg/cm^2	21.7 μg/cm^2 and 27.3 μg/cm^2 and 24.2 μg/cm^2	has not hitherto resulted in constant blood level values	–
O=C(O)CC(O)(CC(=O)O)C(=O)O [Citric acid, citric acid]	–	–	–	–	–	more than 1%

Reference: patent US5462744A, “Transdermal system for the administration of pharmacological compounds under pH-controlled conditions” (Boehringer Ingelheim KG, priority 1990, dated 1995)
